Laboratory results taken from PMC7663103, “Homo-Tris-Nitrones Derived from α-Phenyl-N-tert-butylnitrone: Synthesis, Neuroprotection and Antioxidant Properties” (International Journal of Molecular Sciences, 2020).

Target: T1, soybean lipoxygenase (Glycine max, UniProt P08170)
T1 construct: gene LOX1.1
T1 sequence (P08170 1-839): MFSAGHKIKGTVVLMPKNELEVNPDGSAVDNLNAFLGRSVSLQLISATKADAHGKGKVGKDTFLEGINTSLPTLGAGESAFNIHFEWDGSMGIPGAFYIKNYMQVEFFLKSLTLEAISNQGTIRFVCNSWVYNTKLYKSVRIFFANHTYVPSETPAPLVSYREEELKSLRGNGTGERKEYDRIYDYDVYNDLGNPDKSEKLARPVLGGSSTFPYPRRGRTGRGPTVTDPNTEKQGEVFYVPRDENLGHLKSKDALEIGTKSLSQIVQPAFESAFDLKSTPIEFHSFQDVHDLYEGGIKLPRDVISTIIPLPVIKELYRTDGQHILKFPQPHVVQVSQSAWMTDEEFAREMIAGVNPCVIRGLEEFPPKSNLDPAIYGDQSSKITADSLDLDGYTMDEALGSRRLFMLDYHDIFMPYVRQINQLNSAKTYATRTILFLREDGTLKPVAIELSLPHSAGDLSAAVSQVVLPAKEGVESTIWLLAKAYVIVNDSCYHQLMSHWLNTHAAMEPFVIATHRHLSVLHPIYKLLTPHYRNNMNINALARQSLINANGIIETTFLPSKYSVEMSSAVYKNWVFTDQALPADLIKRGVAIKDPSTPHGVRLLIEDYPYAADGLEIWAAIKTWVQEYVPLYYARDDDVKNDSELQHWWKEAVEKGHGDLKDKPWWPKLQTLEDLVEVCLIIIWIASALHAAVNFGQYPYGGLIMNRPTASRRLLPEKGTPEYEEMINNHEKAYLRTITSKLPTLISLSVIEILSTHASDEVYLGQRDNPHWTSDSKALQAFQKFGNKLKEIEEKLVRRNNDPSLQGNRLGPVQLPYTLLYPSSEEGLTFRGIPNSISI
Experiment: UV assay of sodium linoleate conversion to 13-hydroperoxylinoleic acid at […] nm
Format: biochemical
Conditions: read-out: LOX Inhibition (% or IC50 [μM]) (±SEM)

Row | Structure (SMILES) | IC50
1 | C/[N+]([O-])=C/c1cc(/C=[N+](/C)[O-])cc(/C=[N+](/C)[O-])c1 [HTN1, (1. Z,1′Z,1″Z)-1,1′,1″-(Benzene-1,3,5-triyl)tris(N-methylmethanimineoxide)] | 100 ± 1.1 µM
2 | [O-]/[N+](=C\c1cc(/C=[N+](\[O-])Cc2ccccc2)cc(/C=[N+](\[O-])Cc2ccccc2)c1)Cc1ccccc1 [HTN3, (1. Z,1′Z,1″Z)-1,1′,1″-(Benzene-1,3,5-triyl)tris(N-benzylmethanimineoxide)] | 70 ± 2.6 µM
